In brackets after ≈: the same amount, converted by molar mass. Activity calls are given as the source filed them. The calls are words filed in the database; no cut-off is given here.
Experiments:
[1] = tested on: Mus musculus; assay: Glucose-lowering effect in hyperglycemic KK/Ta mouse assessed as reduction in plasma glucose level at 30 mg/kg/day, po administered through diet for 3 days relative to control; format: functional; parameters: scale not given: the % may be the effect or the level left
[2] = target: T1, Peroxisome proliferator-activated receptor gamma (Homo sapiens) (UniProt P37231); assay: Agonist activity at recombinant human GAL4-DBD fused PPARgamma LBD expressed in COS7 cells at 10 uM after 24 hrs by luciferase reporter gene assay relative to rosiglitazone; format: cell-based
T1 sequence (whole entry): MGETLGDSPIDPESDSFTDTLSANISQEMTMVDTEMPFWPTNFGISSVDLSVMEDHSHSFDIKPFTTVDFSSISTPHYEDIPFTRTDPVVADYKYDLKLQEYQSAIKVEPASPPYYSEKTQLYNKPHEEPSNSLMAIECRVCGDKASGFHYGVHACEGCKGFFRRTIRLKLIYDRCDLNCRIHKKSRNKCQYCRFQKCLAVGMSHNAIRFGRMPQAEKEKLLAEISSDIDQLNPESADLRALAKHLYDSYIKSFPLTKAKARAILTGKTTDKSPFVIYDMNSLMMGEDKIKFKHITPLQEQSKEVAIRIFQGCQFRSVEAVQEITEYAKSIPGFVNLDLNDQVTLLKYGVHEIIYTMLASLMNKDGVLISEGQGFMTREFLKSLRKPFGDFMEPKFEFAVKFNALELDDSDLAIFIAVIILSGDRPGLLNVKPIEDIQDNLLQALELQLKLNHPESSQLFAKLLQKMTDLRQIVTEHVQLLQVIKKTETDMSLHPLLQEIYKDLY

[3] = target: T2, Peroxisome proliferator-activated receptor alpha (Homo sapiens) (UniProt Q07869); assay: Agonist activity at recombinant human GAL4-DBD fused PPARalpha LBD expressed in COS7 cells at 10 uM after 24 hrs by luciferase reporter gene assay relative to 2-(4-tert-Butylphenoxy)-3-[4-[2-[(4-pyridin-2-ylbenzoyl)amino]ethoxy]; format: cell-based
T2 sequence (whole entry): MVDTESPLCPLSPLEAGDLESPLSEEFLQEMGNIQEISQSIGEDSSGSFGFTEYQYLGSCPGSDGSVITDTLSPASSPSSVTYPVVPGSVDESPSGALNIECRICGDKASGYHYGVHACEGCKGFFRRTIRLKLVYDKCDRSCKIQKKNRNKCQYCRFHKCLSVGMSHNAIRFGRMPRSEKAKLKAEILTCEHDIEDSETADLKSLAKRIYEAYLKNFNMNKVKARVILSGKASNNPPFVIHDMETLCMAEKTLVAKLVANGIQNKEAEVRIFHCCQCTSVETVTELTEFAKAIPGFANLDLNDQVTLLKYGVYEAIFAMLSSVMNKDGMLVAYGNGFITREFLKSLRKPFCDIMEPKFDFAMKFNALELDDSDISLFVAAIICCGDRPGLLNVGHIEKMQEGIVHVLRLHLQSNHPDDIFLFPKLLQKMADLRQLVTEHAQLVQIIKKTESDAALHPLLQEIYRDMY

[4] = tested on: Mus musculus; assay: Toxicity in hyperglycemic KK/Ta mouse assessed as body weight gain at 30 mg/kg/day, po administered through diet for 3 days relative to control; format: organism-based; settings: in vivo, 72 h
[5] = target: T3, Peroxisome proliferator-activated receptor delta (Homo sapiens) (UniProt Q03181); assay: Agonist activity at PPARdelta (unknown origin) at 10 uM
T3 sequence (whole entry): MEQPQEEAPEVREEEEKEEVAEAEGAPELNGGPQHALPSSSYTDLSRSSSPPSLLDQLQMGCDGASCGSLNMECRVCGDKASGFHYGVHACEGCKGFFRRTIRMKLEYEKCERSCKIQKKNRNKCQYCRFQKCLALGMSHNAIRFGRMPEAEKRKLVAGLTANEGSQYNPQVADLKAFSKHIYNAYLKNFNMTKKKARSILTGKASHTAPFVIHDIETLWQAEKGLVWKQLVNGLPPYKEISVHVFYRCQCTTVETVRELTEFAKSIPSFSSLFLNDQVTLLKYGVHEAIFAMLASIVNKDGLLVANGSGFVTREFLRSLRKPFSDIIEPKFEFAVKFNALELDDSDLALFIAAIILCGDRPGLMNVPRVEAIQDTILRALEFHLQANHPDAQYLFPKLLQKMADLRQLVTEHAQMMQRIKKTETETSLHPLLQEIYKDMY

[6] = 1-octanol/PBS distribution co-efficient, log D of the compound at […] at pH 7.4 after 30 mins by HPLC-MS/MS analysis; format: physicochemical
[7] = Metabolic stability in human liver microsomes after 0.5 hrs; format: ADME, microsome; settings: read-out: Stability
[8] = target: T4, Peroxisome proliferator-activated receptor gamma (Homo sapiens, UniProt P37231); assay: Agonist activity at recombinant human GAL4-DBD fused PPARgamma LBD expressed in COS7 cells after 24 hrs by luciferase reporter gene assay; format: cell-based
T4 sequence (P37231 whole entry): T1 sequence (whole entry)

[9] = Plasma concentration in hyperglycemic KK/Ta mouse at 30 mg/kg/day, po administered through diet for 3 days measured on day 3 post last dose; format: ADME, organism-based
[10] = target: T5, Peroxisome proliferator-activated receptor alpha (Homo sapiens, UniProt Q07869); assay: Agonist activity at recombinant human GAL4-DBD fused PPARalpha LBD expressed in COS7 cells after 24 hrs by luciferase reporter gene assay; format: cell-based
T5 sequence (Q07869 whole entry): T2 sequence (whole entry)

[11] = Tmax in Zucker diabetic fatty rat at 3 mg/kg, po dosed once daily for 14 days and followed by additional administeration on day 15; format: ADME, organism-based; settings: in vivo
[12] = tested on: Rattus norvegicus; assay: Glucose-lowering effect in Zucker diabetic fatty rat assessed as reduction in plasma glucose level at 3 mg/kg, po administered once daily for 14 days measured on day 14 post last dose relative to control; format: functional; parameters: scale not given: the % may be the effect or the level left
[13] = tested on: Rattus norvegicus; assay: Toxicity in Zucker diabetic fatty rat assessed as body weight gain at 3 mg/kg, po administered once daily for 14 days relative to control; format: organism-based; settings: in vivo, 336 h
[14] = AUC (0 to 24 hrs) in Zucker diabetic fatty rat at 3 mg/kg, po dosed once daily for 14 days and followed by additional administeration on day 15; format: ADME, organism-based; parameters: dose 3 mg/kg, time < 24 hr, route oral; settings: in vivo
[15] = Cmax in Zucker diabetic fatty rat at 3 mg/kg, po dosed once daily for 14 days and followed by additional administeration on day 15; format: ADME, organism-based; parameters: dose 3 mg/kg, route oral; settings: in vivo
[16] = Metabolic stability in rat liver microsomes after 0.5 hrs; format: ADME, microsome; settings: read-out: Stability
[17] = Aqueous thermodynamic solubility of the compound in pH 6.8 solution up to 4 hrs by HPLC-UV analysis; format: physicochemical; settings: read-out: Therm_solubility

| SMILES | Activity [1] [%] | Emax [2] [%] | Emax [3] [%] | Activity [4] [%] | Activity [5] | logD at 0.5 h [6] | remaining at 0.5 h [7] [%] | EC50 [8] [nM] | concentration at 72 h [9] [ng/mL] | EC50 [10] [nM] | Tmax [11] [h] | Activity [12] [%] | Activity [13] [%] | AUC at 24 h [14] [ng·h/mL] | Cmax [15] [ng/mL] | remaining at 0.5 h [16] [%] | solubility thermodynamic at 4 h [17] [µg/mL] |
| --- | --- | --- | --- | --- | --- | --- | --- | --- | --- | --- | --- | --- | --- | --- | --- | --- | --- |
| Cl.Cn1c(COc2cccc(C(=O)O)c2)nc2ccc(Oc3cccc(Cl)c3)cc21 | 59.6 | 103 | 69 | 2.8 | inactive | 2.7 | 90 | 86 | 190 |  |  |  |  |  |  |  |  |
| Cc1cc(F)ccc1Oc1ccc2nc(COc3cccc(C(=O)O)c3)n(C)c2c1 | 54.7 | 66 | 19 | 2.8 |  | 2.5 | 59 | 22 | 190 | > 10000 | 4 | 22 | 11.9 | 420 | 42 | 47 | 1.7 (≈ 4.18 µM) |
| Cn1c(COc2cccc(C(=O)O)c2)nc2ccc(Oc3cccc(F)c3)cc21 | 52.1 | 75 | 22 | 3.2 | inactive | 2 | 98 | 201 | 1740 | > 10000 |  |  |  |  |  |  | 2.2 (≈ 5.61 µM) |
| Cc1ccccc1Oc1ccc2nc(COc3cccc(C(=O)O)c3)n(C)c2c1 | 26.9 | 80 | 16 | 3.7 | inactive | 2.4 | 62 | 56 | 100 | > 10000 |  |  |  |  |  |  | 2.2 (≈ 5.66 µM) |
| Cn1c(COc2cccc(C(=O)O)c2)nc2ccc(Oc3ccc(F)cc3)cc21 | 56.7 | 75 | 29 | 3.4 | inactive | 2 |  | 122 | 320 | > 10000 |  |  |  |  |  |  | 19 (≈ 48.4 µM) |
| Cn1c(COc2cccc(C(=O)O)c2)nc2ccc(Oc3ccc4c(c3)OCC4)cc21 | 41.6 | 95 | 12 | 4.8 |  | 2 | 62 | 21 | 360 | > 10000 | 3.2 | 69.7 | 15.6 | 850 | 80 | 79 | 16 (≈ 38.4 µM) |
| COc1ccc(Oc2ccc3nc(COc4cccc(C(=O)O)c4)n(C)c3c2)cc1 |  | 71 | 7 |  | inactive | 1.8 | 100 | 307 |  | > 10000 |  |  |  |  |  |  | 9.3 (≈ 23 µM) |
